Laboratory results published in ChEMBL document CHEMBL1201862, “PubChem BioAssay data set” (2004).
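Five concentrations, 48 hours, 96-well plates. GI50 marks 50% less growth.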 Calls of active or inactive are those of the source. No stated cut-off is given here; in the data, active = GI50 up to about 1.1 µM and inactive = higher.

Key:
Assay in all cases: inhibition of tumour cell growth, NCI panel, 48 h
786-0 = system: 786-0
A498 = system: A498
A549 = system: A549
ACHN = system: ACHN
BT-549 = system: BT-549
CAKI-1 = system: CAKI-1
COLO 205 = system: COLO 205
DU-145 = system: DU-145
EKVX = system: EKVX
HCT-116 = system: HCT-116
HCT-15 = system: HCT-15
HL-60 = system: HL-60
HOP-62 = system: HOP-62
HOP-92 = system: HOP-92
HT-29 = system: HT-29
Hs-578T = system: Hs-578T
IGROV-1 = system: IGROV-1
K562 = system: K562
KM12 = system: KM12
LOX IMVI = system: LOX IMVI
M14 = system: M14
MCF7 = system: MCF7
MDA-MB-231 = system: MDA-MB-231
MDA-MB-435 = system: MDA-MB-435
MDA-N = system: MDA-N
MOLT-4 = system: MOLT-4
Malme-3M = system: Malme-3M
NCI-H226 = system: NCI-H226
NCI-H23 = system: NCI-H23
NCI-H460 = system: NCI-H460
NCI-H522 = system: NCI-H522
NCI/ADR-RES = system: NCI/ADR-RES
OVCAR-3 = system: OVCAR-3
OVCAR-4 = system: OVCAR-4
OVCAR-5 = system: OVCAR-5
OVCAR-8 = system: OVCAR-8
PC-3 = system: PC-3
RPMI-8226 = system: RPMI-8226
RXF 393 = system: RXF 393
SF-268 = system: SF-268
SF-295 = system: SF-295
SF-539 = system: SF-539
SK-MEL-28 = system: SK-MEL-28
SK-MEL-2 = system: SK-MEL-2
SK-MEL-5 = system: SK-MEL-5
SK-OV-3 = system: SK-OV-3
SN12C = system: SN12C
SNB-19 = system: SNB-19
SNB-75 = system: SNB-75
SR = system: SR
SW-620 = system: SW-620
T47D = system: T47D
TK-10 = system: TK-10
U-251 = system: U-251
UACC-257 = system: UACC-257
UACC-62 = system: UACC-62
UO-31 = system: UO-31
CCRF-CEM = system: CCRF-CEM
HCC 2998 = system: HCC 2998

Measured: GI50

O=C(O)CSCCc1ccccc1
active: HL-60 0.156 µM
inactive: 786-0 > 100 µM | A498 > 100 µM | A549 > 100 µM | ACHN > 100 µM | BT-549 > 100 µM | CAKI-1 > 100 µM | COLO 205 > 100 µM | DU-145 > 100 µM | EKVX > 100 µM | HCT-116 > 100 µM | HOP-62 > 100 µM | HOP-92 > 100 µM | HT-29 > 100 µM | Hs-578T > 100 µM | IGROV-1 > 100 µM | K562 > 100 µM | KM12 > 100 µM | LOX IMVI > 100 µM | M14 > 100 µM | MCF7 > 100 µM | MDA-MB-231 > 100 µM | MDA-MB-435 > 100 µM | MDA-N > 100 µM | MOLT-4 > 100 µM | Malme-3M > 100 µM | NCI-H226 > 100 µM | NCI-H23 > 100 µM | NCI-H460 > 100 µM | NCI-H522 > 100 µM | NCI/ADR-RES > 100 µM | OVCAR-3 > 100 µM | OVCAR-4 > 100 µM | OVCAR-5 > 100 µM | OVCAR-8 > 100 µM | PC-3 > 100 µM | RPMI-8226 > 100 µM | RXF 393 > 100 µM | SF-268 > 100 µM | SF-295 > 100 µM | SF-539 > 100 µM | SK-MEL-28 > 100 µM | SK-MEL-2 > 100 µM | SK-MEL-5 > 100 µM | SK-OV-3 > 100 µM | SN12C > 100 µM | SNB-19 > 100 µM | SNB-75 > 100 µM | SR > 100 µM | SW-620 > 100 µM | T47D > 100 µM | TK-10 > 100 µM | U-251 > 100 µM | UACC-257 > 100 µM | UACC-62 > 100 µM | UO-31 > 100 µM
> 100 µM: HCT-15

O=C(O)CNC(=O)C1NC(C(F)(F)F)(C(F)(F)F)OC1(C(F)(F)F)C(F)(F)F (stereo not drawn)
inactive: 786-0 > 100 µM | A498 > 100 µM | A549 > 100 µM | ACHN > 100 µM | BT-549 > 100 µM | CAKI-1 > 100 µM | COLO 205 > 100 µM | DU-145 > 100 µM | EKVX > 100 µM | HCT-116 > 100 µM | HL-60 > 100 µM | HOP-62 > 100 µM | HOP-92 > 100 µM | HT-29 > 100 µM | Hs-578T > 100 µM | IGROV-1 > 100 µM | K562 > 100 µM | KM12 > 100 µM | LOX IMVI > 100 µM | M14 > 100 µM | MCF7 > 100 µM | MDA-MB-231 > 100 µM | MDA-MB-435 > 100 µM | MDA-N > 100 µM | MOLT-4 > 100 µM | Malme-3M > 100 µM | NCI-H226 > 100 µM | NCI-H23 > 100 µM | NCI-H460 > 100 µM | NCI-H522 > 100 µM | NCI/ADR-RES > 100 µM | OVCAR-3 > 100 µM | OVCAR-4 > 100 µM | OVCAR-5 > 100 µM | OVCAR-8 > 100 µM | PC-3 > 100 µM | RPMI-8226 > 100 µM | RXF 393 > 100 µM | SF-268 > 100 µM | SF-295 92.3 µM | SF-539 > 100 µM | SK-MEL-28 > 100 µM | SK-MEL-2 > 100 µM | SK-MEL-5 > 100 µM | SK-OV-3 > 100 µM | SN12C > 100 µM | SNB-19 > 100 µM | SNB-75 > 100 µM | SR > 100 µM | SW-620 > 100 µM | T47D > 100 µM | TK-10 > 100 µM | U-251 > 100 µM | UACC-257 > 100 µM | UACC-62 > 100 µM | UO-31 > 100 µM
> 100 µM: HCT-15

COc1ccc2nc(N/N=C/c3ccc(C)s3)cc(C)c2c1
7.96 µM: HCT-15
inactive: 786-0 13 µM | A549 > 100 µM | ACHN 17.7 µM | BT-549 14.9 µM | CAKI-1 23 µM | CCRF-CEM 28.1 µM | COLO 205 19.4 µM | DU-145 17.7 µM | EKVX 26.4 µM | HCC 2998 16 µM | HCT-116 4.65 µM | HL-60 27.2 µM | HOP-62 20.1 µM | HOP-92 13.9 µM | HT-29 6.08 µM | Hs-578T 22.1 µM | IGROV-1 26.2 µM | K562 14 µM | KM12 19.7 µM | LOX IMVI 16.3 µM | M14 16.6 µM | MCF7 18 µM | MDA-MB-231 21.5 µM | MDA-MB-435 19 µM | MDA-N 16.3 µM | MOLT-4 12.9 µM | Malme-3M 31 µM | NCI-H226 14.8 µM | NCI-H23 13.5 µM | NCI-H522 39.7 µM | NCI/ADR-RES 19.7 µM | OVCAR-3 19.6 µM | OVCAR-4 13.9 µM | OVCAR-5 15.7 µM | OVCAR-8 19.5 µM | PC-3 17.1 µM | RPMI-8226 11.2 µM | RXF 393 19.2 µM | SF-268 20.1 µM | SF-295 16.9 µM | SF-539 16.5 µM | SK-MEL-28 26.5 µM | SK-MEL-2 21.7 µM | SK-MEL-5 15.5 µM | SK-OV-3 22.9 µM | SN12C 17.9 µM | SNB-19 17.3 µM | SNB-75 24.3 µM | SR 25.4 µM | SW-620 25.1 µM | T47D 17.1 µM | TK-10 21.6 µM | U-251 21.1 µM | UACC-257 17.1 µM | UACC-62 16.8 µM | UO-31 17.7 µM

COc1ccc(/C=N\N2CC(=O)N3C4C=CC(CC4)N3C2=O)cc1 (stereo not drawn)
inactive: 786-0 > 100 µM | A498 > 100 µM | A549 > 100 µM | ACHN > 100 µM | BT-549 > 100 µM | CAKI-1 > 100 µM | CCRF-CEM > 100 µM | COLO 205 > 100 µM | DU-145 > 100 µM | EKVX > 100 µM | HCT-116 > 100 µM | HL-60 53.1 µM | HOP-62 46.7 µM | HOP-92 > 100 µM | HT-29 > 100 µM | Hs-578T 46.3 µM | IGROV-1 > 100 µM | K562 > 100 µM | KM12 > 100 µM | LOX IMVI > 100 µM | M14 > 100 µM | MCF7 > 100 µM | MDA-MB-231 > 100 µM | MDA-MB-435 > 100 µM | MDA-N > 100 µM | MOLT-4 > 100 µM | NCI-H226 > 100 µM | NCI-H23 > 100 µM | NCI-H460 > 100 µM | NCI/ADR-RES 81.8 µM | OVCAR-3 > 100 µM | OVCAR-5 > 100 µM | OVCAR-8 58.1 µM | PC-3 > 100 µM | RPMI-8226 > 100 µM | SF-268 88.7 µM | SF-295 > 100 µM | SF-539 > 100 µM | SK-MEL-28 > 100 µM | SK-MEL-2 > 100 µM | SK-MEL-5 54.7 µM | SK-OV-3 > 100 µM | SN12C > 100 µM | SNB-19 > 100 µM | SNB-75 22.2 µM | SR > 100 µM | SW-620 > 100 µM | T47D 85.7 µM | TK-10 > 100 µM | U-251 > 100 µM | UACC-257 > 100 µM | UACC-62 74.8 µM | UO-31 > 100 µM
> 100 µM: HCT-15

O=c1oc2ccc([N+](=O)[O-])cc2c(Nc2ccc3c(c2)S(=O)(=O)c2ccccc2O3)c1[N+](=O)[O-]
inactive: 786-0 > 100 µM | A549 > 100 µM | ACHN > 100 µM | BT-549 73.1 µM | CAKI-1 > 100 µM | CCRF-CEM 38.3 µM | COLO 205 > 100 µM | DU-145 > 100 µM | EKVX > 100 µM | HCC 2998 26.5 µM | HCT-116 73.5 µM | HL-60 > 100 µM | HOP-62 49.9 µM | HOP-92 51.2 µM | HT-29 65.9 µM | Hs-578T 72.1 µM | IGROV-1 > 100 µM | K562 33 µM | KM12 > 100 µM | LOX IMVI 78.2 µM | M14 42.9 µM | MCF7 > 100 µM | MDA-MB-231 49.7 µM | MDA-MB-435 > 100 µM | MDA-N 68.1 µM | MOLT-4 40.1 µM | Malme-3M > 100 µM | NCI-H226 35.9 µM | NCI-H23 > 100 µM | NCI-H460 98.4 µM | NCI-H522 87.1 µM | NCI/ADR-RES > 100 µM | OVCAR-3 69.3 µM | OVCAR-4 > 100 µM | OVCAR-5 > 100 µM | OVCAR-8 > 100 µM | PC-3 34.8 µM | RPMI-8226 39 µM | RXF 393 45.4 µM | SF-268 88.5 µM | SF-295 60.4 µM | SF-539 46.8 µM | SK-MEL-28 46.3 µM | SK-MEL-2 52.2 µM | SK-MEL-5 81.8 µM | SK-OV-3 > 100 µM | SN12C 80.2 µM | SNB-19 77.1 µM | SNB-75 73.6 µM | SR 32.4 µM | SW-620 97.7 µM | T47D > 100 µM | TK-10 > 100 µM | U-251 57.3 µM | UACC-257 > 100 µM | UACC-62 43.8 µM | UO-31 53.3 µM
83 µM: HCT-15
